Measurements taken from ChEMBL document CHEMBL5303573, “Mapping human microbiome drug metabolism by gut bacteria and their genes” (Nature, 2019).

Tests used:
[1] = The drug is tested on Blautia hansenii strain: DSM20583 for biotransformation. The drug concentrations were measured before and after a 12-h incubation by liquid-chromatography-coupled mass spectrometry (LC–MS); conditions: 2 µM
[2] = enterocloster bolteae, 12 h, 2 µM
Description: The drug is tested on Clostridium bolteae strain: ATCCBAA-613 for biotransformation. The drug concentrations were measured before and after a 12-h incubation by liquid-chromatography-coupled mass spectrometry (LC–MS)

[3] = The drug is tested on Ruminococcus torques strain: ATCC27756 for biotransformation. The drug concentrations were measured before and after a 12-h incubation by liquid-chromatography-coupled mass spectrometry (LC–MS); assay type: ADME; parameters: dose 2 uM, timepoint 0 vs 12 hours; conditions: 2 µM
[4] = bifidobacterium adolescentis, 12 h, 2 µM
Description: The drug is tested on Bifidobacterium adolescentis strain: ATCC 15703 for biotransformation. The drug concentrations were measured before and after a 12-h incubation by liquid-chromatography-coupled mass spectrometry (LC–MS)

[5] = The drug is tested on Blautia luti strain: DSM14534 for biotransformation. The drug concentrations were measured before and after a 12-h incubation by liquid-chromatography-coupled mass spectrometry (LC–MS); assay type: ADME; parameters: dose 2 uM, timepoint 0 vs 12 hours; conditions: 2 µM
[6] = The drug is tested on Edwardsiella tarda strain: ATCC23685 for biotransformation. The drug concentrations were measured before and after a 12-h incubation by liquid-chromatography-coupled mass spectrometry (LC–MS); conditions: 2 µM
[7] = The drug is tested on Bacteroides ovatus strain: ATCC8483 for biotransformation. The drug concentrations were measured before and after a 12-h incubation by liquid-chromatography-coupled mass spectrometry (LC–MS); conditions: 2 µM
[8] = The drug is tested on Providencia rettgeri strain: DSM1131 for biotransformation. The drug concentrations were measured before and after a 12-h incubation by liquid-chromatography-coupled mass spectrometry (LC–MS); assay type: ADME; parameters: dose 2 uM, timepoint 0 vs 12 hours; conditions: 2 µM
[9] = The drug is tested on Bacteroides fragilis strain: HMW610 for biotransformation. The drug concentrations were measured before and after a 12-h incubation by liquid-chromatography-coupled mass spectrometry (LC–MS); conditions: 2 µM
[10] = limosilactobacillus reuteri cf48-3a, 12 h, 2 µM
Description: The drug is tested on Lactobacillus reuteri CF48-3A strain: BEI HM-102 for biotransformation. The drug concentrations were measured before and after a 12-h incubation by liquid-chromatography-coupled mass spectrometry (LC–MS)

[11] = The drug is tested on Odoribacter splanchnicus strain: fecal isolate for biotransformation. The drug concentrations were measured before and after a 12-h incubation by liquid-chromatography-coupled mass spectrometry (LC–MS); conditions: 2 µM
[12] = The drug is tested on Parabacteroides merdae strain: ATCC43184 for biotransformation. The drug concentrations were measured before and after a 12-h incubation by liquid-chromatography-coupled mass spectrometry (LC–MS); conditions: 2 µM
[13] = The drug is tested on Bacteroides caccae strain: ATCC43185 for biotransformation. The drug concentrations were measured before and after a 12-h incubation by liquid-chromatography-coupled mass spectrometry (LC–MS); conditions: 2 µM
[14] = The drug is tested on Bacteroides uniformis strain: ATCC8492 for biotransformation. The drug concentrations were measured before and after a 12-h incubation by liquid-chromatography-coupled mass spectrometry (LC–MS); conditions: 2 µM
[15] = The drug is tested on Enterococcus faecalis strain: V583 for biotransformation. The drug concentrations were measured before and after a 12-h incubation by liquid-chromatography-coupled mass spectrometry (LC–MS); conditions: 2 µM
[16] = The drug is tested on Dorea formicigenerans strain: ATCC27755 for biotransformation. The drug concentrations were measured before and after a 12-h incubation by liquid-chromatography-coupled mass spectrometry (LC–MS); conditions: 2 µM
[17] = akkermansia muciniphila, 12 h, 2 µM
Description: The drug is tested on Akkermansia muciniphila strain: ATCC BAA-835 for biotransformation. The drug concentrations were measured before and after a 12-h incubation by liquid-chromatography-coupled mass spectrometry (LC–MS)

[18] = The drug is tested on Bacteroides xylanisolvens strain: DSM18836 for biotransformation. The drug concentrations were measured before and after a 12-h incubation by liquid-chromatography-coupled mass spectrometry (LC–MS); conditions: 2 µM
[19] = bacteroides thetaiotaomicron, 12 h, 2 µM
Description: The drug is tested on Bacteroides thetaiotaomicron strain: VPI-5482 for biotransformation. The drug concentrations were measured before and after a 12-h incubation by liquid-chromatography-coupled mass spectrometry (LC–MS)

Row | SMILES | Bacterial Biotransformation [1] | Bacterial Biotransformation [2] | Bacterial Biotransformation [3] | Bacterial Biotransformation [4] | Bacterial Biotransformation [5] | Bacterial Biotransformation [6] | Bacterial Biotransformation [7] | Bacterial Biotransformation [8] | Bacterial Biotransformation [9] | Bacterial Biotransformation [10] | Bacterial Biotransformation [11] | Bacterial Biotransformation [12] | Bacterial Biotransformation [13] | Bacterial Biotransformation [14] | Bacterial Biotransformation [15] | Bacterial Biotransformation [16] | Bacterial Biotransformation [17] | Bacterial Biotransformation [18] | Bacterial Biotransformation [19]
1 | NC(=O)N1c2ccccc2CC(=O)c2ccccc21 [OXCARBAZEPINE] | Compound NOT metabolized | Compound NOT metabolized | Compound metabolized | Compound metabolized | Compound metabolized | Compound metabolized | Compound NOT metabolized | Compound metabolized | Compound NOT metabolized | Compound metabolized | Compound metabolized | Compound NOT metabolized | Compound NOT metabolized | Compound metabolized | Compound NOT metabolized | Compound metabolized | Compound metabolized |  | 
2 | C=CCN1CC[C@]23c4c5ccc(O)c4O[C@H]2C(=O)CC[C@@]3(O)[C@H]1C5 [NALOXONE] | Compound metabolized | Compound NOT metabolized | Compound metabolized | Compound metabolized | Compound NOT metabolized | Compound NOT metabolized | Compound metabolized | Compound NOT metabolized | Compound metabolized | Compound metabolized | Compound NOT metabolized |  |  | Compound metabolized |  | Compound NOT metabolized | Compound metabolized | Compound metabolized | Compound metabolized
3 | COc1ccccc1N1CCN(CC(O)COc2cccc3ccccc23)CC1 (configuration not stated) [NAFTOPIDIL] | Compound NOT metabolized | Compound NOT metabolized | Compound NOT metabolized | Compound NOT metabolized | Compound NOT metabolized | Compound NOT metabolized | Compound NOT metabolized | Compound NOT metabolized | Compound metabolized | Compound NOT metabolized | Compound NOT metabolized | Compound NOT metabolized | Compound NOT metabolized | Compound NOT metabolized | Compound NOT metabolized | Compound NOT metabolized | Compound NOT metabolized | Compound NOT metabolized | Compound NOT metabolized
4 | COC1=C(OC)C(=O)C(CCCCCCCCCCO)=C(C)C1=O [IDEBENONE] | Compound NOT metabolized | Compound metabolized | Compound NOT metabolized | Compound NOT metabolized | Compound metabolized | Compound NOT metabolized | Compound NOT metabolized | Compound NOT metabolized | Compound metabolized | Compound NOT metabolized | Compound metabolized | Compound NOT metabolized | Compound metabolized | Compound metabolized | Compound NOT metabolized | Compound NOT metabolized | Compound NOT metabolized | Compound metabolized | Compound NOT metabolized
5 | CN1CCC(=C2c3ccccc3CC(=O)c3sccc32)CC1.O=C(O)/C=C/C(=O)O [KETOTIFEN FUMARATE] | Compound NOT metabolized |  | Compound NOT metabolized | Compound NOT metabolized | Compound NOT metabolized | Compound NOT metabolized | Compound NOT metabolized | Compound NOT metabolized | Compound NOT metabolized | Compound NOT metabolized | Compound NOT metabolized | Compound NOT metabolized | Compound NOT metabolized | Compound NOT metabolized | Compound NOT metabolized | Compound NOT metabolized | Compound NOT metabolized | Compound NOT metabolized | Compound NOT metabolized
6 | Cc1nc(Nc2ncc(C(=O)Nc3c(C)cccc3Cl)s2)cc(N2CCN(CCO)CC2)n1.O [DASATINIB] | Compound metabolized | Compound metabolized | Compound NOT metabolized | Compound metabolized | Compound NOT metabolized |  | Compound NOT metabolized | Compound NOT metabolized | Compound metabolized | Compound metabolized | Compound NOT metabolized | Compound NOT metabolized | Compound NOT metabolized | Compound NOT metabolized | Compound NOT metabolized | Compound NOT metabolized | Compound metabolized | Compound NOT metabolized | Compound NOT metabolized
7 | CC(C)c1c(CN(C)C(C)Cc2ccccc2)n(C)n(-c2ccccc2)c1=O (configuration not stated) [FAMPROFAZONE] | Compound metabolized | Compound metabolized | Compound NOT metabolized | Compound NOT metabolized | Compound NOT metabolized | Compound metabolized | Compound metabolized | Compound NOT metabolized | Compound metabolized | Compound metabolized | Compound metabolized | Compound metabolized | Compound NOT metabolized | Compound metabolized | Compound NOT metabolized | Compound metabolized | Compound metabolized | Compound metabolized | Compound metabolized
8 | COC(=O)Nc1nc2ccc(C(=O)c3ccccc3)cc2[nH]1 [MEBENDAZOLE] | Compound metabolized | Compound NOT metabolized | Compound NOT metabolized |  |  | Compound NOT metabolized | Compound NOT metabolized | Compound NOT metabolized | Compound metabolized |  | Compound metabolized | Compound NOT metabolized | Compound NOT metabolized | Compound metabolized | Compound NOT metabolized | Compound NOT metabolized | Compound NOT metabolized | Compound metabolized | Compound metabolized
